Assay results: patent US10793557B2, “Sting agonist compounds” (Merck Sharp & Dohme Corp., priority 2018, dated 2020)

What was measured:
full-length HAQ STING = biological target: T1, full-length HAQ STING (Homo sapiens, UniProt Q86WV6, G230A/H232R/R293Q/R71H); test: 3H-cGAMP filtration binding assay (HAQ STING); conditions: competition with tritiated cGAMP, HAQ STING membrane
T1 construct: AviTag (after GG linker) (C); HRV3C cleavage site (after GS linker) (C); HIS8 (C); made in house; host or cells: Trichoplusia ni (Hi-Five) insect cells infected with baculovirus (virus generated and amplified in Sf21 cells); used as a washed membrane preparation
T1 sequence (Q86WV6 with tags, fused parts or gaps R71H/G230A/H232R/R293Q): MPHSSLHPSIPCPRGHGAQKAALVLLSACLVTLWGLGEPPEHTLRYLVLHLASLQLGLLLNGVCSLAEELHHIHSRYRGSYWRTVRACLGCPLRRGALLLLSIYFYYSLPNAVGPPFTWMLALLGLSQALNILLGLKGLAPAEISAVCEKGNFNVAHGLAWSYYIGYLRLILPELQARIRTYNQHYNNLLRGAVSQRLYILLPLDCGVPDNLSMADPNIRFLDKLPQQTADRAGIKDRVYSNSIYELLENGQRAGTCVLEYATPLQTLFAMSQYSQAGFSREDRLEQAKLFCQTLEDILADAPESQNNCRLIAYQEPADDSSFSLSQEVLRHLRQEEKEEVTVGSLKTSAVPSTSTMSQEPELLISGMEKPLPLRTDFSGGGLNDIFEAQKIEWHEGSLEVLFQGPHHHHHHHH
Method in brief: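 Hi-Five (T. ni) membranes overexpressing the STING variant (2.2 ug/ml working) preincubated with compound 60 min at RT in PBS, then [3H]cGAMP (8 nM working stock) added for 60 min at RT. Bound radioactivity captured on GF/B filters and counted by scintillation; EC50 from 4-parameter fit of control-normalized activity.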

full-length WT STING = biological target: T2, full-length WT STING (Homo sapiens, UniProt Q86WV6, H232R); test: 3H-cGAMP filtration binding assay (WT STING); conditions: competition with tritiated cGAMP, WT STING membrane
T2 construct: AviTag (after gg linker) (C); HRV3C cleavage site (after gs linker) (C); HIS8 (C); made in house; host or cells: Trichoplusia ni (Hi-Five) insect cells infected with baculovirus (virus generated and amplified in Sf21 cells); used as a washed membrane preparation
T2 sequence (Q86WV6 with tags, fused parts or gaps H232R): as the sequence (Q86WV6 with tags, fused parts or gaps R71H/G230A/H232R/R293Q) above, with H71R, A230G, Q293R counted along it
Method in brief: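 Competitive filtration binding of [3H]cGAMP (16 nM working stock) to T. ni membranes overexpressing full-length WT human STING, 60 min at RT in PBS. Bound radioactivity counted after GF/B filtration; 10-point 1:3 titration, EC50 from 4-parameter fit after control normalisation.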

[1] = test system: secretion of interferon-beta from THP1 cells; test: IFN-β secretion in THP1 cell culture (5 h); type: cell-based; conditions: Homo sapiens, THP-1, 5 h, compound at 30 μM, 30 uM cGAMP = 100%, read-out: % Effect at 30 μM relative to 2′3′-cGAMP
Method in brief: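 Thawed THP1 cells (0.8×10^6/mL, RPMI with 0.5% FBS) exposed to compounds 1.5–30000 nM (0.3% DMSO) for 5 h at 37 °C. Supernatant IFN-β quantified by AlphaLISA. Percent effect normalised to 30 uM cGAMP and DMSO controls; EC50 from 4-parameter fit.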

Row | EC50 (full-length HAQ STING) [nM] | EC50 (full-length WT STING) [nM] | SMILES | activation at 30 µM [1] [%]
1 | 2 | 4 | COc1cc2sc(C(=O)CCC(=O)O)cc2c(F)c1OCCCOc1c(OC)cc2sc(C(=O)C[C@H](C)C(=O)O)cc2c1F [Example 64, (S)-4-(5-(3-((2-(3-carboxypropanoyl)-4-fluoro-6-methoxybenzo[b]thiophen-5-yl)oxy)propoxy)-4-fluoro-6-methoxybenzo[b]thiophen-2-yl)-2-methyl-4-oxobutanoic acid] | 58
2 | 1 | 1 | COc1cc2sc(C(=O)CCC(=O)O)cc2c(F)c1OCCOc1c(OC)cc2sc(C(=O)CCC(=O)O)cc2c1F [Example 65, 4,4′-((ethane-1,2-diylbis(oxy))bis(4-fluoro-6-methoxybenzo[b]thiophene-5,2-diyl))bis(4-oxobutanoic acid)] | 105
3 | 40 | 45 | COc1cc2sc(C(=O)C[C@H](C)C(=O)O)cc2cc1OCCOc1c(OC)cc2sc(C(=O)C[C@H](C)C(=O)O)cc2c1F [Example 67, (S)-4-(5-(2-((2-((S)-3-carboxybutanoyl)-4-fluoro-6-methoxybenzo[b]thiophen-5-yl)oxy)ethoxy)-6-methoxybenzo[b]thiophen-2-yl)-2-methyl-4-oxobutanoic acid] | 92
4 | 3 | 2 | COc1cc2sc(C(=O)C[C@H](C)C(=O)O)cc2cc1OCCCOc1c(OC)cc2sc(C(=O)CC(C)(C)C(=O)O)cc2c1F [Example 71, (S)-4-(5-(3-((2-(3-carboxybutanoyl)-6-methoxybenzo[b]thiophen-5-yl)oxy)propoxy)-4-fluoro-6-methoxybenzo[b]thiophen-2-yl)-2,2-dimethyl-4-oxobutanoic acid] | 15
5 | 1 | 2 | COc1cc2sc(C(=O)C[C@H](C)C(=O)O)cc2cc1OCCCOc1c(OC)cc2sc(C(=O)CCC(=O)O)cc2c1F [Example 72, (S)-4-(5-(3-((2-(3-carboxypropanoyl)-4-fluoro-6-methoxybenzo[b]thiophen-5-yl)oxy)propoxy)-6-methoxybenzo[b]thiophen-2-yl)-2-methyl-4-oxobutanoic acid] | 77
6 | 139 | 691 | COc1cc2sc(C(=O)CCC(=O)O)cc2cc1CCCNc1nc2cc(C(=O)CCC(=O)O)sc2cc1OC [Example 75, 4-(5-((3-(2-(3-carboxypropanoyl)-6-methoxybenzo[b]thiophen-5-yl)propyl)amino)-6-methoxythieno[3,2-b]pyridin-2-yl)-4-oxobutanoic acid] | 63
7 | 2 | 23 | COc1cc2sc(C(=O)CCC(=O)O)cc2nc1OCCOc1c(OC)cc2sc(C(=O)CCC(=O)O)cc2c1F [Example 81, 4-(5-(2-((2-(3-carboxypropanoyl)-4-fluoro-6-methoxybenzo[b]thiophen-5-yl)oxy)ethoxy)-6-methoxythieno[3,2-b]pyridin-2-yl)-4-oxobutanoic acid] | 120
8 | 2 | 9 | COc1cc2sc(C(=O)CCC(=O)O)cc2nc1OCCOc1c(OC)cc2sc(C(=O)C[C@H](C)C(=O)O)cc2c1F [Example 83, (S)-4-(5-(2-((2-(3-carboxypropanoyl)-6-methoxythieno[3,2-b]pyridin-5-yl)oxy)ethoxy)-4-fluoro-6-methoxybenzo[b]thiophen-2-yl)-2-methyl-4-oxobutanoic acid] | 107

The next lines start with the molecule.

Row | SMILES | EC50 (full-length HAQ STING) [nM] | EC50 (full-length WT STING) [nM] | activation at 30 µM [1] [%]
9 | COc1cc2sc(C(=O)C[C@H](C)C(=O)O)cc2cc1CCCNc1cc2cc(C(=O)C[C@H](C)C(=O)O)sc2cc1OC [Example 61, (S)-4-(5-(3-((2-((S)-3-carboxybutanoyl)-6-methoxybenzo[b]thiophen-5-yl)amino)propyl)-6-methoxybenzo[b]thiophen-2-yl)-2-methyl-4-oxobutanoic acid] | 33 | 327 | 62
10 | COc1cc2sc(C(=O)CCC(=O)O)cc2c(F)c1OCCCOc1c(OC)cc2sc(C(=O)CCC(=O)O)cc2c1F [Example 62, 4,4′-((propane-1,3-diylbis(oxy))bis(4-fluoro-6-methoxybenzo[b]thiophene-5,2-diyl))bis(4-oxobutanoic acid)] | 2 | 2 | 106
11 | COc1cc2sc(C(=O)CCC(=O)O)cc2c(F)c1OCCOc1c(OC)cc2sc(C(=O)C[C@H](C)C(=O)O)cc2c1F [Example 63, (S)-4-(5-(2-((2-(3-carboxypropanoyl)-4-fluoro-6-methoxybenzo[b]thiophen-5-yl)oxy)ethoxy)-4-fluoro-6-methoxybenzo[b]thiophen-2-yl)-2-methyl-4-oxobutanoic acid] | 1 | 4 | 62
12 | COc1cc2sc(C(=O)C[C@@H](C)C(=O)O)cc2cc1OCCOc1c(OC)cc2sc(C(=O)C[C@H](C)C(=O)O)cc2c1F [Example 66, (R)-4-(5-(2-((2-((S)-3-carboxybutanoyl)-4-fluoro-6-methoxybenzo[b]thiophen-5-yl)oxy)ethoxy)-6-methoxybenzo [b]thiophen-2-yl)-2-methyl-4-oxobutanoic acid] | 4 | 20 | 103
13 | COc1cc2sc(C(=O)C[C@H](C)C(=O)O)cc2cc1OCCCOc1c(OC)cc2sc(C(=O)C[C@H](C)C(=O)O)cc2c1F [Example 69, (S)-4-(5-(3-((2-((S)-3-carboxybutanoyl)-4-fluoro-6-methoxybenzo[b]thiophen-5-yl)oxy)propoxy)-6-methoxybenzo[b]thiophen-2-yl)-2-methyl-4-oxobutanoic acid] | 1 | 2 | 46
14 | COc1cc2cc(C(=O)C[C@H](C)C(=O)O)sc2cc1OCCCOc1c(OC)cc2sc(C(=O)C[C@H](C)C(=O)O)cc2c1F [Example 70, (S)-4-(6-(3-((2-((S)-3-carboxybutanoyl)-4-fluoro-6-methoxybenzo[b]thiophen-5-yl)oxy)propoxy)-5-methoxybenzo[b]thiophen-2-yl)-2-methyl-4-oxobutanoic acid] | 1 | 1 | 47
15 | COc1cc2cc(C(=O)C[C@H](C)C(=O)O)sc2cc1OCCCOc1c(OC)cc2sc(C(=O)CCC(=O)O)cc2c1F [Example 73, (S)-4-(6-(3-((2-(3-carboxypropanoyl)-4-fluoro-6-methoxybenzo[b]thiophen-5-yl)oxy)propoxy)-5-methoxybenzo[b]thiophen-2-yl)-2-methyl-4-oxobutanoic acid] | 1 | 4 | 67
16 | COc1cc2sc(C(=O)C[C@H](C)C(=O)O)cc2cc1NCCCOc1cc2cc(C(=O)C[C@H](C)C(=O)O)sc2cc1OC [Example 74, (S)-4-(5-(3-((2-((S)-3-carboxybutanoyl)-6-methoxybenzo[b]thiophen-5-yl)amino)propoxy)-6-methoxybenzo[b]thiophen-2-yl)-2-methyl-4-oxobutanoic acid] | 4 | 6 | 16
17 | COc1cc2sc(C(=O)C[C@H](C)C(=O)O)cc2cc1OCCOc1cc2cc(C(=O)C[C@H](C)C(=O)O)sc2cc1OC [Example 76, (2S,2′S)-4,4′-((ethane-1,2-diylbis(oxy))bis(6-methoxybenzo[b]thiophene-5,2-diyl))bis(2-methyl-4-oxobutanoic acid)] | 22 | 56 | 44
18 | C[C@@H](CC(=O)c1cc2cc(OCCCOc3cc4cc(C(=O)C[C@H](C)C(=O)O)sc4cc3OC(F)F)c(OC(F)F)cc2s1)C(=O)O [Example 79, (2S,2′S)-4,4′-(1,3-propanediylbis{oxy[6-(difluoromethoxy)-1-benzothiene-5,2-diyl]})bis(2-methyl-4-oxobutanoic acid)] | 5 | 12 | 49
19 | COc1cc2sc(C(=O)[C@H]3C[C@@H]3C(=O)O)cc2cc1OCCCOc1cc2cc(C(=O)[C@@H]3C[C@H]3C(=O)O)sc2cc1OC [Example 80, rac-(1S,2S)-2-(5-(3-((2-((1R, 2R)-2-carboxy-cyclopropane-1-carbonyl)-6-methoxybenzo[b]thiophen-5-yl)oxy)propoxy)-6-methoxybenzo[b]thiophene-2-carbonyl)cyclopropane-1-carboxylic acid] | 1300 | 12700 | 12
20 | COc1cc2sc(C(=O)CCC(=O)O)cc2nc1OCCCOc1c(OC)cc2sc(C(=O)CCC(=O)O)cc2c1F [Example 82, 4-(5-(3-((2-(3-carboxypropanoyl)-4-fluoro-6-methoxybenzo[b]thiophen-5-yl)oxy)propoxy)-6-methoxythieno[3,2-b]pyridin-2-yl)-4-oxobutanoic acid] | 1 | 2 | 158
